Assays:
Format in all cases: in vivo
[1] = system: galium (catchweed bedstraw, Galium aparine); assay: Test A1 postemergence, galium; settings: Postemergence
Procedure, shortened: (§1)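 Both timings started from seed in a loam-sand blend. Preemergence pots got a directed soil application immediately; postemergence pots were sprayed when seedlings had one or two leaves and stood 2–10 cm. Each compound was prepared in a non-phytotoxic solvent plus surfactant.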

[2] = system: Foxtail, Giant (giant foxtail, Setaria faberi); assay: Test A1 postemergence, Foxtail, Giant; settings: Postemergence
Procedure, shortened: as §1

[3] = system: Ryegrass, Italian (Italian ryegrass, Lolium multiflorum); assay: Test A1 postemergence, Ryegrass, Italian; settings: Postemergence
Procedure, shortened: as §1

[4] = system: Pigweed, Palmer (palmer amaranth, palmer pigweed, Amaranthus palmeri); assay: Test A1 preemergence, Pigweed, Palmer
Procedure, shortened: (§2)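 Test compounds were formulated in a non-phytotoxic solvent mixture containing a surfactant. For preemergence, seeds sown in a loam soil–sand blend received a directed soil spray. For postemergence, potted plants in the same soil, 2 to 10 cm tall at the one- to two-leaf stage, were sprayed.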

[5] = system: corn (Zea mays); assay: Test A1 postemergence, corn; settings: Postemergence
Procedure, shortened: as §2

[6] = system: blackgrass (Alopecurus myosuroides); assay: Test A1 postemergence, blackgrass; settings: Postemergence, 0 to 100 scale (0 no effect, 100 complete control)
Procedure, shortened: as §1

[7] = system: Ryegrass, Italian (Italian ryegrass, Lolium multiflorum); assay: Test A1 preemergence, Ryegrass, Italian
Procedure, shortened: as §2

[8] = system: soybean (Glycine max); assay: Test A1 postemergence, soybean; settings: Postemergence
Procedure, shortened: as §1

[9] = system: soybean (Glycine max); assay: Test A1 preemergence, soybean
Procedure, shortened: as §2

[10] = system: kochia (Bassia scoparia); assay: Test A1 postemergence, kochia; settings: Postemergence
Procedure, shortened: as §1

[11] = 31 g ai/ha, 0 to 100 scale (0 no effect, 100 complete control), 10 days
[12] = 31 g ai/ha, 0 to 100 scale (0 no effect, 100 complete control)
[13] = 125 g ai/ha, 0 to 100 scale, 0 no effect, 100 complete control

Row | SMILES | Plant response rating, Galium [1, 11] | Plant response rating, Galium ([1]; 125 g ai/ha, 0 to 100 scale) | Plant response rating, Foxtail, Giant [2, 11] | Plant response rating, Foxtail, Giant ([2]; 125 g ai/ha, 0 to 100 scale) | Plant response rating, Ryegrass, Italian [3, 11] | Plant response rating, Ryegrass, Italian ([3]; 125 g ai/ha, 0 to 100 scale) | Plant response rating, Pigweed, Palmer [4, 12] | Plant response rating, Pigweed, Palmer [4, 13] | Plant response rating, Corn [5, 11] | Plant response rating, Corn ([5]; 125 g ai/ha, 0 to 100 scale) | Plant response rating, Blackgrass ([6]; 31 g ai/ha, 10 days) | Plant response rating, Blackgrass ([6]; 125 g ai/ha) | Plant response rating, Ryegrass, Italian [7, 12] | Plant response rating, Ryegrass, Italian [7, 13] | Plant response rating, Soybean [8, 11] | Plant response rating, Soybean ([8]; 125 g ai/ha, 0 to 100 scale) | Plant response rating, Soybean [9, 12] | Plant response rating, Soybean [9, 13] | Plant response rating, Kochia [10, 11] | Plant response rating, Kochia ([10]; 125 g ai/ha, 0 to 100 scale)
1 | Cc1c(NS(=O)(=O)C(F)(F)F)cc(C(=O)N2CCCCC2)c(C)c1C [Compound 326] | 70 | 100 | 10 | 30 | 0 | 30 | 90 | 100 | 0 | 0 | 0 | 0 | 20 | 70 | 70 | 70 | 40 | 90 | 30 | 70
2 | Cc1c(NS(=O)(=O)C(F)(F)F)cc(C(=O)N2CC(C)OC(C)C2)c(C)c1C (stereo not shown) [Compound 327] | 100 | 100 | 30 | 90 | 0 | 30 | 90 | 90 | 10 | 40 | 0 | 0 | 40 | 50 | 60 | 60 | 30 | 90 | 10 | 30
3 | Cc1c(NS(=O)(=O)C(F)(F)F)cc(C(=O)N2CC(C)OC(C)C2)c(C)c1C (stereo not shown) [Compound 328] | 80 | 100 | 0 | 70 | 30 | 60 | 100 | 100 | 0 | 50 | 0 | 0 | 30 | 100 | 60 | 60 | 50 | 90 | 10 | 60
4 | Cc1c(C(=O)N2CCCCC2)cc(N(COC(=O)C(C)(C)C)S(=O)(=O)C(F)(F)F)c(C)c1C [Compound 329, [[(Trifluoromethyl)sulfonyl][2,3,4-trimethyl-5-(1-piperidinylcarbonyl)phenyl]amino]methyl 2,2-dimethylpropanoate] | 50 | 80 | 10 | 70 | 0 | 0 | 10 | 50 | 0 | 0 | 0 | 30 | 0 | 0 | 60 | 60 | 0 | 0 | 10 | 20
5 | CCOC(=O)N(c1cc(C(=O)N2CCCCC2)c(C)c(C)c1C)S(=O)(=O)C(F)(F)F [Compound 330, Ethyl N-[(trifluoromethyl)sulfonyl]-N-[2,3,4-trimethyl-5-(1-piperidinylcarbonyl)phenyl]carbamate] | 50 | 60 | 20 | 80 | 0 | 0 | 70 | 80 | 0 | 10 | 0 | 40 | 0 | 90 | 90 | 80 | 0 | 30 | 10 | 50
6 | Cc1c(C(=O)N2C[C@@H](C)O[C@@H](C)C2)cc(N(COC(=O)C(C)(C)C)S(=O)(=O)C(F)(F)F)c(C)c1C [Compound 331] | 60 | 90 | 20 | 80 | 10 | 50 | 0 | 30 | 10 | 50 | 0 | 50 | 0 | 0 | 60 | 70 | 0 | 10 | 0 | 10
7 | CCOC(=O)N(c1cc(C(=O)N2C[C@@H](C)O[C@@H](C)C2)c(C)c(C)c1C)S(=O)(=O)C(F)(F)F [Compound 332] | 80 | 90 | 30 | 90 | 0 | 50 | 60 | 90 | 0 | 50 | 0 | 90 | 0 | 20 | 60 | 100 | 20 | 70 | 0 | 10
8 | Cc1c(C(=O)N2CCCCC2)cc(NS(=O)(=O)C(F)(F)F)c(Cl)c1F [Compound 333] | 70 | 90 | 10 | 30 | 0 | 0 | 90 | 100 | 0 | 0 | 0 | 30 | 30 | 50 | 30 | 80 | 40 | 60 | 30 | 70

Reference: patent US20230278972A1, “SUBSTITUTED HALOALKYL SULFONANILIDE HERBICIDES” (FMC Corporation, priority 2020, published 2023)
